One experiment relates to GSK-3. Nature of the experiment: Cytoplasmic β-catenin stabilization in HEK293T cells (Western blot). In kind it is cell-based, human. The following applies: 10 μM, vs DMSO-treated cells. On the procedure:
Human embryonic kidney 293T (HEK293T) cells, U87MG astrocytoma and the human oligodendrocyte cell line MO3-13 were grown in Dubelco Minimal Eagle Media (DMEM) (Invitrogen, Carlsbad, Calif., USA) supplemented with 5% heat inactivated fetal bovine serum. Cells were grown to 70% confluence prior to treatment. […] Cells were exposed to drug for 3 hours at 37° C. in a 5% CO2 incubator. U87MG cells were grown to 70% confluence prior to treatment. Cells were treated with either DMSO vehicle (NT) or individually with 1, 5 and 10 μM latanoprost in DMEM lacking fetal bovine serum. Cells were exposed to treatments for 6 hours at 37° C. in a 5% CO2 incubator. The human oligodendrocyte cell line MO3-13 was grown and differentiated according to the methods described in McLaurin et al. (McLaurin, J., Trudel, G. C., Shaw, I. T., Antel, J. P., and Cashman, N. R., J. Neurobiol., 26: 283-293, 1995). On the third day of serum starvation, cells were treated with either DMSO vehicle (NT) or individually with 1, 5 and 10 μM latanoprost. Cells were exposed to treatments for 6 hours at 37° C. in a 5% CO2 incubator.
For detection of CREB and Serine-133 (S133)-phosphorylated CREB, serotonin receptor 5HT2A, TCF/LEF1, BDNF and TNF-total protein extracts were prepared from cell cultures using a sintered glass tissue homogenizer (Wheaton, Millville, N.J., USA) in phosphate-buffered saline (PBS), pH 7.5, 3M urea. For detection of β-catenin, cell cultures were washed with PBS, trypsinized, and pelleted at 1,000 rpm for 4 minutes. The cell pellets were washed and resuspended in cold hypotonic buffer consisting of 10 mM HEPES (pH 7.5), 1.5 mM MgCl2, 10 mM KCl, 0.5 mM DTT, and EDTA-free protease inhibitor (Roche, Laval, QC, Canada) in an ice bath for 5 minutes. The mixture was then homogenized using a dounce homogenizer and the cellular debris was pelleted by centrifugation at 4° C. Cytoplasmic fractions were recovered and used for assaying β-catenin.
Protein concentrations were determined by the Peterson method (Peterson, Analyt. Biochem., 83: 346-356, 1977). […]

For experiment [1], the system named is human oligodendrocyte cell line MO3-13. Nature of the experiment: Immuno-slotblot assay for secreted BDNF, oligodendrocyte conditioned media. The experiment is classed as cell-based. The settings on record: 1 μM, 5 μM, 10 μM; oligodendrocytes media; vs non-treated and DMSO. On the procedure: Human embryonic kidney 293T (HEK293T) cells, U87MG astrocytoma and the human oligodendrocyte cell line MO3-13 were grown in Dubelco Minimal Eagle Media (DMEM) (Invitrogen, Carlsbad, Calif., USA) supplemented with 5% heat inactivated fetal bovine serum. Cells were grown to 70% confluence prior to treatment. HEK293T cells were treated individually with […] latanoprost, unoprostone, bimatoprost, fluprostenol, PGE2, and PGF2α in serum-free DMEM. Cells were exposed to drug for 3 hours at 37° C. in a 5% CO2 incubator. U87MG cells were grown to 70% confluence prior to treatment. […]
Cell culture media from cells that were not treated or treated with DMSO, 1, 5 or 10 μM latanoprost treated was collected in 15-mL screw cap polypropylene tubes from cell culture dishes. […] The relative amount of BDNF secreted by U87MG astrocytoma and MO3-13 oligodendrocyte cell lines were determined by an immune-slotblot method in which 200 μL of conditioned media was applied in triplicate to nitrocellulose membrane pre-wet in water in a Biodot (SF) ultrafiltration unit (Bio-Rad Laboratories, Mississauga, ON, Canada) under vacuum. […] After washing the membrane as above, the bound secondary antibody was detected by ECL Advance™ Western blot HRP substrate (GE Healthcare) using a ChemiDoc™ MP Imaging System (Bio-Rad Laboratories). The relative amount of BDNF was determined by using ImageLab™ software (BioRad). […]

Each structure is given as a SMILES string.

For `CC(C)OC(=O)CCC/C=C\C[C@@H]1[C@@H](CC[C@@H](O)CCc2ccccc2)[C@H](O)C[C@@H]1O` [latanoprost, propan-2-yl-(Z)-7-[(1R,2R,3R,5S)-3,5-dihydroxy-2-[(3R)-3-hydroxy-5-phenylpentyl]cyclopentyl]-hept-5-enoate], the “levels of cytoplasmic β-catenin” value in the experiment with GSK-3 is listed as “increased levels of cytoplasmic β-catenin”. In addition, in experiment [1], the “amount of BDNF secreted” value is “no significant increase”.

(Values after US9259409B2, “Compositions comprising a prostaglandin for treating neuropsychiatric conditions” (Inceptum Research & Therapeutics, Inc., priority 2011, dated 2016).)
